# Test results reported in article PMC6630910 (Pharmaceuticals, 2019).
# Experiments:
# [1] = target: P-I type metalloproteinase Batx-I (Bothrops atrox, UniProt P0DJE1); experiment: biochemical
# [2] = system: PLA2 from snake venoms; details: same methodology as this paper; read-out: IC50 (PLA2 inhibition); cited from earlier work
# Chain of P-I type metalloproteinase Batx-I (P0DJE1 whole entry, looked up): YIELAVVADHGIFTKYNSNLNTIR
SMILES,melting point [°C],activity at 2000 µM ([1]; read-out: Batx-I proteolytic activity still observed) [%],IC50 [1] [µM],IC50 [2] [µM]
"CCOC(=O)CSC(=O)c1ccc(Cl)cc1 [Compound I, Ethyl 2-((4-chlorobenzoyl)thio)acetate]",55.6,70,,
"CCOC(=O)CSC(=O)c1cccc([N+](=O)[O-])c1 [II, Ethyl 2-((3-nitrobenzoyl)thio)acetate]",44.5,,2770,
"CCOC(=O)CSC(=O)c1ccc([N+](=O)[O-])cc1 [III, Ethyl 2-((4-nitrobenzoyl)thio)acetate]",56.2,,1880,
O=C1c2c(O)cc(O)cc2O[C@H](c2ccc(O)cc2)[C@H]1c1c(O)cc(O)c2c(=O)cc(-c3ccc(O)c(O)c3)oc12 [Morelloflavone],,,,380
COc1cc(O)c2c(c1)O[C@H](c1ccccc1)CC2=O [Pinostrobin],,,,1850
